Data from publication PMC9452538, “The antimicrobial peptide LI14 combats multidrug-resistant bacterial infections” (Communications Biology, 2022).
Converted amounts (≈) assume the structure as drawn. Read-outs that look alike come from different tables or passages of the source. Peptide text beside a SMILES is read from it.

Tests used:
E. faecalis 1F-1 = test: microbe, parasite or virus in culture; format: cell-based
Method: (§1) An antimicrobial activity study was conducted on all peptides against a panel of laboratory bacteria, including ATCC source and clinical isolates with resistance determinants. According to CLSI2021 guidelines, we tested the minimum inhibitory concentrations (MICs) of peptides using standard broth micro-dilutions. Briefly, bacteria grown to exponential phase were diluted in 1:1000 to MHB, subsequently, equivalent amounts of bacterial suspension (1.5 × 10^6 CFUs/mL) were mixed with different concentrations of peptides in a sterilized 96-well microtiter plate (Corning).

[1] = system: E. faecalis A4 (VRE, VanA); test: microbe, parasite or virus in culture; format: cell-based
Method: as §1

[2] = system: S. enteritidis ATCC 13076; test: microbe, parasite or virus in culture; format: cell-based
Method: as §1

E. coli CP131 (mcr-3) = test: microbe, parasite or virus in culture; format: cell-based, Escherichia coli
Method: as §1

E. coli B3-1 (tet(X4)) = test: microbe, parasite or virus in culture; format: cell-based, Escherichia coli
Method: as §1

E. coli G6 (blaNDM-5) = test: microbe, parasite or virus in culture; format: cell-based, Escherichia coli
Method: as §1

E. coli G92 (mcr-1) = test: microbe, parasite or virus in culture; format: cell-based, Escherichia coli
Method: as §1

E. coli C3 (blaNDM-1) = test: microbe, parasite or virus in culture; format: cell-based, Escherichia coli
Method: as §1

E. coli 1F28 (tet(X4)) = test: microbe, parasite or virus in culture; format: cell-based, Escherichia coli
Method: as §1

MRSA T144 [3] = test: microbe, parasite or virus in culture; format: cell-based, Staphylococcus aureus
Method: as §1

S. aureus ATCC 29213 = test: microbe, parasite or virus in culture; format: cell-based, Staphylococcus aureus
Method: as §1

[4] = system: K. pneumoniae D120 (mcr-8); test: microbe, parasite or virus in culture; format: cell-based, Klebsiella pneumoniae
Method: as §1

[5] = system: K. pneumoniae ATCC 700603; test: microbe, parasite or virus in culture; format: cell-based, Klebsiella pneumoniae
Method: as §1

MRSA T144 [6] = format: cell-based, Staphylococcus aureus
Method: (§2) MRSA T144 and E. coli B2 in the exponential growth phase were incubated with LI14 peptide supplemented with 10 mM Na^+, K^+, Mg^2+, 10% Dulbecco’s modified Eagle medium (DMEM), and 10% fetal bovine serum (FBS) for 16–18 h. The stability of LI14 was evaluated by the change of its antibacterial activity under different conditions.
(§3) LI14 were preincubated for 1 h at various temperatures (40–121 °C), pH (2–12), and proteases (pepsin, trypsin, and papain, final concentration 1 mg/mL). […] Following the incubation with the proteases, the leftover protease was precipitated with acetonitrile and removed by centrifugation at 3000 × g, followed by a MIC test.
(§4) Supplementary Table 4 Thermal, pH, salts and protease stability of AMPs against
(§5) MRSA T144 and E. coli B2 (MIC, μg/mL).
(§6) Treatment MRSA T144 E. coli B2

[7] = system: A. baumannii C222 (tet(X6)); test: microbe, parasite or virus in culture; format: cell-based, Acinetobacter baumannii
Method: as §1

A. baumannii ATCC 19609 = test: microbe, parasite or virus in culture; format: cell-based, Acinetobacter baumannii
Method: as §1

E. coli ATCC 25922 = test: microbe, parasite or virus in culture; format: cell-based, Escherichia coli
Method: as §1

[8] = system: E. coli B2 (blaNDM-5 + mcr-1); test: microbe, parasite or virus in culture; format: cell-based, Escherichia coli
Method: as §1

P. aeruginosa PA14 = test: microbe, parasite or virus in culture; format: cell-based, Pseudomonas aeruginosa
Method: as §1

[9] = system: P. cibarius HNCF44W (blaNDM-1 + tet(X6)); test: organism not typed; format: cell-based
Method: as §1

E. faecium 5F-10 = test: microbe, parasite or virus in culture; format: cell-based, Enterococcus faecium
Method: as §1

MRSA 1530 = test: microbe, parasite or virus in culture; format: cell-based, Staphylococcus aureus
Method: as §1

MRSA 1518 = test: microbe, parasite or virus in culture; format: cell-based, Staphylococcus aureus
Method: as §1

E. coli B2 = format: cell-based, Escherichia coli
Method: as §2, §3, §4, §5, §6

MDR E. coli B2 = test: Checkerboard assay with LI14; format: cell-based, Escherichia coli
Method: Through checkerboard assay using two-fold serially diluted drugs (8 × 8 matrix), we evaluated the synergistic effects of LI14 with different mechanisms of antibiotics. The absorbance of cultures at 600 nm was determined by a Microplate reader after 18 h of incubation with (1.5 × 10^6 CFUs/mL) bacterial suspension. The FIC index (FICI) was calculated by performing two biological replicates for each combination. The formula is as follows: FIC index = FICIa + FICIb = MICab/MICa + MICba/Mb. An FIC index of ≤0.5 indicates synergy.
a/bMICs of antibiotics in the absence or presence of ¼ MIC of LI14.
cDegree of antibiotics potentiation in the presence of ¼ MIC of LI14.
–, none of potentiation activity.

E. coli DH5α (PUC19) = test: MIC broth microdilution; format: cell-based, Escherichia coli; conditions: engineered E. coli DH5α (PUC19); MHB, 16-18 h, 37 °C
Method: as §1

[10] = system: E. coli DH5α (PUC19-mcr-1); test: MIC broth microdilution; format: cell-based, Escherichia coli; conditions: engineered E. coli DH5α (PUC19-mcr-1); MHB, 16-18 h, 37 °C
Method: as §1

S. aureus G16 (RIF^R) = test: MIC broth microdilution; format: cell-based, Staphylococcus aureus; conditions: S. aureus G16 (RIF^R); MHB, 16-18 h, 37 °C
Method: as §1

[11] = system: S. aureus 215 (cfr + LZD^R); test: MIC broth microdilution; format: cell-based, Staphylococcus aureus; conditions: S. aureus 215 (cfr + LZD^R); MHB, 16-18 h, 37 °C
Method: as §1

Compound: CC[C@H](C)[C@H](NC(=O)[C@H](CCCNC(=N)N)NC(=O)[C@H](CS)NC(=O)[C@H](CC(C)C)NC(=O)[C@H](CCCCN)NC(=O)[C@H](CCCCN)NC(=O)[C@H](CC(C)C)NC(=O)[C@@H](NC(=O)[C@H](CCCNC(=N)N)NC(=O)[C@H](CS)NC(=O)[C@H](CC(C)C)NC(=O)[C@H](CCCCN)NC(=O)[C@H](CCCCN)NC(=O)[C@H](CC(C)C)NC(=O)[C@@H](NC(=O)[C@H](CCCNC(=N)N)NC(=O)[C@H](CS)NC(=O)[C@H](CC(C)C)NC(=O)[C@H](CCCCN)NC(=O)[C@H](CCCCN)NC(=O)[C@@H](N)CC(C)C)[C@@H](C)CC)[C@@H](C)CC)C(N)=O [LI21] (H-LKKLCRILKKLCRILKKLCRI-NH2; N-terminus and C-terminus assumed)
- MIC (E. faecalis 1F-1; 1F-1): 64 µg/mL (≈ 24.8 µM)
- MIC ([1]; A4 (VRE, VanA)): 32 µg/mL (≈ 12.4 µM)
- MIC ([2]; ATCC 13076): 32 µg/mL (≈ 12.4 µM)
- MIC (E. coli CP131 (mcr-3); CP131 (mcr-3)): 16 µg/mL (≈ 6.2 µM)
- MIC (E. coli B3-1 (tet(X4)); B3-1 (tet(X4))): 32 µg/mL (≈ 12.4 µM)
- MIC (E. coli G6 (blaNDM-5); G6 (blaNDM-5)): 16 µg/mL (≈ 6.2 µM)
- MIC (E. coli G92 (mcr-1); G92 (mcr-1)): 32 µg/mL (≈ 12.4 µM)
- MIC (E. coli C3 (blaNDM-1); C3 (blaNDM-1)): 32 µg/mL (≈ 12.4 µM)
- MIC (E. coli 1F28 (tet(X4)); 1F28 (tet(X4))): 32 µg/mL (≈ 12.4 µM)
- MIC (MRSA T144 [3]; T144): 32 µg/mL (≈ 12.4 µM)
- MIC (S. aureus ATCC 29213; ATCC 29213): 32 µg/mL (≈ 12.4 µM)
- MIC ([4]; D120 (mcr-8)): 32 µg/mL (≈ 12.4 µM)
- MIC ([5]; ATCC 700603): 64 µg/mL (≈ 24.8 µM)
- MIC (MRSA T144 [6]; T144): 64 µg/mL (≈ 24.8 µM)
- MIC (MRSA T144 [6]; T144, 1 h): > 128 µg/mL
- MIC ([7]; C222 (tet(X6))): 32 µg/mL (≈ 12.4 µM)
- MIC (A. baumannii ATCC 19609; ATCC 19609): 32 µg/mL (≈ 12.4 µM)
- MIC (E. coli ATCC 25922; ATCC 25922): 64 µg/mL (≈ 24.8 µM)
- MIC ([8]; B2 (blaNDM-5 + mcr-1)): 64 µg/mL
- MIC (P. aeruginosa PA14; PA14): 32 µg/mL (≈ 12.4 µM)
- MIC [9]: 32 µg/mL (≈ 12.4 µM)
- MIC (E. faecium 5F-10; 5F-10): 64 µg/mL (≈ 24.8 µM)
- MIC (MRSA 1530; 1530): 32 µg/mL (≈ 12.4 µM)
- MIC (MRSA 1518; 1518): 32 µg/mL (≈ 12.4 µM)
- MIC (E. coli B2; B2): 32 µg/mL (≈ 12.4 µM)
- MIC (E. coli B2; B2, 1 h): > 128 µg/mL
- MIC (E. coli B2; E. coli B2, MgCl2 10 mM): 64 µg/mL (≈ 24.8 µM)

Compound: Colistin
- MIC (E. faecalis 1F-1; E. faecalis 1F-1, MHB, 16-18 h, 37 °C): >64 µg/mL
- MIC ([1]; E. faecalis A4 (VRE, VanA), MHB, 16-18 h, 37 °C): 64 µg/mL
- MIC ([2]; S. enteritidis ATCC 13076, MHB, 16-18 h, 37 °C): 0.25 µg/mL
- MIC (E. coli CP131 (mcr-3); E. coli CP131 (mcr-3), MHB, 16-18 h, 37 °C): 2 µg/mL
- MIC (E. coli B3-1 (tet(X4)); E. coli B3-1 (tet(X4)), MHB, 16-18 h, 37 °C): 0.0625 µg/mL
- MIC (E. coli G6 (blaNDM-5); E. coli G6 (blaNDM-5), MHB, 16-18 h, 37 °C): 0.5 µg/mL
- MIC (E. coli G92 (mcr-1); E. coli G92 (mcr-1), MHB, 16-18 h, 37 °C): 4 µg/mL
- MIC (E. coli C3 (blaNDM-1); E. coli C3 (blaNDM-1), MHB, 16-18 h, 37 °C): <0.125 µg/mL
- MIC (E. coli 1F28 (tet(X4)); E. coli 1F28 (tet(X4)), MHB, 16-18 h, 37 °C): 0.125 µg/mL
- MIC (MRSA T144 [3]; MRSA T144, MHB, 16-18 h, 37 °C): 16 µg/mL
- MIC (S. aureus ATCC 29213; S. aureus ATCC 29213, MHB, 16-18 h, 37 °C): 16 µg/mL
- MIC ([4]; K. pneumoniae D120 (mcr-8), MHB, 16-18 h, 37 °C): 4 µg/mL
- MIC ([5]; K. pneumoniae ATCC 700603, MHB, 16-18 h, 37 °C): 1 µg/mL
- FIC index (MDR E. coli B2; antibiotic in combination with LI14, checkerboard 8 × 8, 18 h, ≤0.5 = synergy): 2
- MICa of antibiotic (MDR E. coli B2; in the absence of LI14): 8 µg/mL
- MICb of antibiotic (MDR E. coli B2; in the presence of ¼ MIC of LI14): 8 µg/mL
- MIC ([7]; A. baumannii C222 (tet(X6)), MHB, 16-18 h, 37 °C): <0.125 µg/mL
- MIC (A. baumannii ATCC 19609; A. baumannii ATCC 19609, MHB, 16-18 h, 37 °C): 0.125 µg/mL
- MIC (E. coli DH5α (PUC19)): <0.125 µg/mL
- MIC [10]: 2 µg/mL
- MIC (E. coli ATCC 25922; E. coli ATCC 25922, MHB, 16-18 h, 37 °C): 0.5 µg/mL
- MIC ([8]; E. coli B2 (blaNDM-5 + mcr-1), MHB, 16-18 h, 37 °C): 8 µg/mL
- MIC (S. aureus G16 (RIF^R)): 1 µg/mL
- MIC [11]: 16 µg/mL
- MIC (P. aeruginosa PA14; P. aeruginosa PA14, MHB, 16-18 h, 37 °C): 1 µg/mL
- MIC ([9]; P. cibarius HNCF44W (blaNDM-1 + tet(X6)), MHB, 16-18 h, 37 °C): >256 µg/mL
- MIC (E. faecium 5F-10; E. faecium 5F-10, MHB, 16-18 h, 37 °C): >64 µg/mL
- MIC (MRSA 1530; MRSA 1530, MHB, 16-18 h, 37 °C): 16 µg/mL
- MIC (MRSA 1518; MRSA 1518, MHB, 16-18 h, 37 °C): 16 µg/mL
